Data on 20 compounds can be found in patent US9062033B2, “Chemical compounds” (Rottapharm Biotech S.r.l., priority 2011, dated 2015).

One assay deals with T1, human OX1 receptors (Homo sapiens, UniProt O43613).
T1 construct: expressed in transfected cells; host or cells: CHO cells
T1 sequence (O43613 1-425): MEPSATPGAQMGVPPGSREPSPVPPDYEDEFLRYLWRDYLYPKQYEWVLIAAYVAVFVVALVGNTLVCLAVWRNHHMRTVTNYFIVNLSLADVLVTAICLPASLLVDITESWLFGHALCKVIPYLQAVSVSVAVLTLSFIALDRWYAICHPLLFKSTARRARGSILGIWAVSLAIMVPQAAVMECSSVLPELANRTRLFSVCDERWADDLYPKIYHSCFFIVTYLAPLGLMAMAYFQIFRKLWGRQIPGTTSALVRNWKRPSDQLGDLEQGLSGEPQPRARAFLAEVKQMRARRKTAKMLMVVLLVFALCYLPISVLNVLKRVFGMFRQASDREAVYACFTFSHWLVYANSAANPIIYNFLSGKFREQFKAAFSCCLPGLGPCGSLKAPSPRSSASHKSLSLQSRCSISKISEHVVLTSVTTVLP
The assay is described as follows: Antagonistic activity against human OX1 receptor, [Ca2+]i fluorimetry (Fluo-4NW) in transfected CHO cells activated with orexin-A. The assay is classed as cell-based. The settings on record: CHO cells transfected with human recombinant OX1; orexin-A 3 nM; pKb = co-logarithm of apparent dissociation constant, modified Cheng Prusoff. As to the method: (§1) In a typical experiment, the antagonistic activity against human OX1 and OX2 receptors is determined by using CHO e HEK-293 cells transfected with human recombinant OX1 and OX2 receptors respectively, seeded at density of 2 and 3×10^4 cells/well respectively in a 96 fluorimetry well plate. Thus the plate was loaded with the calcium dye (Fluo-4NW/probenecid in HBSS, Hepes 20 mM, pH 7.4; Invitrogen) at 37° C. for 60 min. Afterward the temperature was equilibrated at 22° C. for 15 min and the [Ca2+]i measured directly on the plate by using a fluorescent plate reader (CellLux Perkin Elmer).
(§2) Invention compounds were dissolved in DMSO, diluted in HBSS (DMSO, 0.3% final) and added to the wells. After 5 min CHO cells were activated with orexin-A, 3 nM while HEK-293 cells were activated with orexin-B, 10 nM.
(§3) The compounds, dissolved in DMSO and diluted in the medium (DMSO, 0.3% final), have been analysed in the 1 nM-1 μM concentration range (every concentration in duplicate). The antagonistic activity has been expressed as pKb (co-logarithm of the apparent dissociation constant calculated by using the modified Cheng Prusoff equation).
(§4) The results are expressed as percent of control specific […] response ((measured specific response/control specific agonist response)×100) obtained in the presence of the test compounds.
(§5) The IC50 values (concentration causing a half-maximal inhibition of the control specific agonist response) were determinated by non-linear regression analysis of the concentration curves generated with mean replicate values using hill equation curve fitting. The IC50 values are obtained by the arithmetical mean of at least two experiments. Compounds of the following example tested according to this example gave pKbs as follows: […]

In the next assay the target is T2, human OX2 receptors (Homo sapiens, UniProt O43614).
T2 construct: expressed in transfected cells; host or cells: HEK-293 cells
T2 sequence (O43614 1-444): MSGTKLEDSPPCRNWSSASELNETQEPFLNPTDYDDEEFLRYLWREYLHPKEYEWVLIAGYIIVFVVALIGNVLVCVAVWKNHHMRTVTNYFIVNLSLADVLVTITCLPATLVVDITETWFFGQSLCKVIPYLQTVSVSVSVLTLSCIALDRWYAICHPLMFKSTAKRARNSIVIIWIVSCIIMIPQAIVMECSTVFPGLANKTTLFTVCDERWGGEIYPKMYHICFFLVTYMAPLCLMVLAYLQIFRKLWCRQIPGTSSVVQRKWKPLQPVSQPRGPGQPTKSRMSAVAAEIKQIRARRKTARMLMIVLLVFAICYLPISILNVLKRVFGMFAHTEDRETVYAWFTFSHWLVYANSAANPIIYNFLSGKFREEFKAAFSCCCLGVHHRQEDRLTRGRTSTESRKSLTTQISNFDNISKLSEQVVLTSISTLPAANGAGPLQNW
The experiment in a line: Antagonistic activity against human OX2 receptor, [Ca2+]i fluorimetry (Fluo-4NW) in transfected HEK-293 cells activated with orexin-B. The assay is classed as cell-based. As to conditions: HEK-293 cells transfected with human recombinant OX2; orexin-B 10 nM; pKb = co-logarithm of apparent dissociation constant, modified Cheng Prusoff. As for the experimental part:
as §1, §2, §3, §4, §5

In the case of `N#Cc1ccc(-c2ncccn2)c(C(=O)N2CC3(CC3)C[C@H]2CNc2ccc(C(F)(F)F)cn2)c1` [Compound E12, (S)-4-(pyrimidin-2-yl)-3-(6-(((5-(trifluoromethyl)-pyridin-2-yl)amino)methyl)-5-azaspiro[2.4]heptane-5-carbonyl)benzonitrile], the Kb on human OX1 receptors was 10 nM; on human OX2 receptors, 7.94 nM.

Consider `Cc1nc(C(=O)N2CC3(CC3)C[C@H]2CNc2ccc(C(F)(F)F)cn2)c(-c2ccccc2)s1` [Compound 2d, (S)-(2-methyl-5-phenylthiazol-4-yl)(6-(((5-(trifluoromethyl)pyridin-2-yl)amino)methyl)-5-azaspiro[2.4]heptan-5-yl)methanone], for which the Kb at human OX1 receptors was 3.98 nM; at human OX2 receptors, 20 nM.

With `Cc1ccc(-c2ccc(F)c(F)c2)c(C(=O)N2CC3(CC3)C[C@H]2CNc2ccc(C(F)(F)F)cn2)n1` [Compound E11, (S)-(3-(3,4-difluorophenyl)-6-methylpyridin-2-yl)(6-(((5-(trifluoromethyl)pyridin-2-yl)amino)methyl)-5-azaspiro[2.4]heptan-5-yl)methanone], the Kb on human OX1 receptors was 12.6 nM; on human OX2 receptors, 20 nM.

Take `O=C(c1cc(Cl)ccc1-c1ncccn1)N1CC2(CC2)C[C@H]1CNc1cc(C(F)(F)F)ccn1` [Compound 1f, (S)-(5-chloro-2-(pyrimidin-2-yl)phenyl)(6-(((4-(trifluoromethyl)pyridin-2-yl)amino)methyl)-5-azaspiro[2.4]heptan-5-yl)methanone]: the figures for the Kb on human OX1 receptors and at human OX2 receptors were 7.94 nM and 12.6 nM, respectively.

As to `Cc1ccc(-c2nccs2)c(C(=O)N2CC3(CC3)C[C@H]2CNc2ccc(C(F)(F)F)cn2)n1` [Compound 3q, (S)-(6-methyl-3-(thiazol-2-yl)pyridin-2-yl)(6-(((5-(trifluoromethyl)pyridin-2-yl)amino)methyl)-5-azaspiro[2.4]heptan-5-yl)methanone], the figures for the Kb at human OX1 receptors and at human OX2 receptors were 2.51 nM and 10 nM, respectively.

As to `Cc1nc(C(=O)N2CC3(CC3)C[C@H]2CNc2ncc(Cl)cn2)c(-c2ccccc2)s1` [Compound 2g, (S)-(6-(((5-chloropyrimidin-2-yl)amino)methyl)-5-azaspiro[2.4]heptan-5-yl)(2-methyl-5-phenylthiazol-4-yl)methanone], the Kb at human OX1 receptors and on human OX2 receptors was 158 nM each time.

Turning to `Cc1ccc(OCc2cccc(F)c2F)c(C(=O)N2CC3(CC3)C[C@H]2CNc2ccc(C(F)(F)F)cn2)n1` [Compound 3l, (S)-(3-((2,3-difluorobenzyl)oxy)-6-methylpyridin-2-yl)(6-(((5-(trifluoromethyl)pyridin-2-yl)amino)methyl)-5-azaspiro[2.4]heptan-5-yl)methanone], the Kb was 25.1 nM at human OX1 receptors and 7.94 nM at human OX2 receptors.

As for `Cc1ccc(-c2ncccn2)c(C(=O)N2CC3(CC3)C[C@H]2CNc2nccc(C(F)(F)F)n2)c1` [Compound 1p, (S)-(5-methyl-2-(pyrimidin-2-yl)phenyl)(6-(((4-(trifluoromethyl)pyrimidin-2-yl)amino)methyl)-5-azaspiro[2.4]heptan-5-yl)methanone], the Kb at human OX1 receptors was 79.4 nM; on human OX2 receptors, 20 nM.

Take `O=C(c1cc(F)ccc1-c1ncccn1)N1CC2(CC2)C[C@H]1CNc1cc(C(F)(F)F)ccn1` [Compound 1k, (S)-(5-fluoro-2-(pyrimidin-2-yl)phenyl)(6-(((4-(trifluoromethyl)pyridin-2-yl)amino)methyl)-5-azaspiro[2.4]heptan-5-yl)methanone]: the Kb was 50.1 nM on human OX1 receptors and 7.94 nM on human OX2 receptors.

As for `Cc1cc(C(F)(F)F)cc(NC[C@@H]2CC3(CC3)CN2C(=O)c2cc(F)ccc2-c2ncccn2)n1` [Compound 1j, (S)-(5-fluoro-2-(pyrimidin-2-yl)phenyl)(6-(((6-methyl-4-(trifluoromethyl)pyridin-2-yl)amino)methyl)-5-azaspiro[2.4]heptan-5-yl)methanone], the Kb was 20 nM on human OX1 receptors and 6.31 nM on human OX2 receptors.

On to `Cc1cccc(C(=O)N2CC3(CC3)C[C@H]2CNc2ccc(C(F)(F)F)cn2)c1-c1ncccn1` [Compound 1c, (S)-(3-methyl-2-(pyrimidin-2-yl)phenyl)(6-(((5-(trifluoromethyl)pyridin-2-yl)amino)methyl)-5-azaspiro[2.4]heptan-5-yl)methanone], for which the Kb at human OX1 receptors was 12.6 nM; on human OX2 receptors it was 200 nM.

`O=C(c1cc(Cl)ccc1-c1ncccn1)N1CC2(CC2)C[C@H]1CNc1ccc(C(F)(F)F)cn1` [Compound 1a, (S)-(5-chloro-2-(pyrimidin-2-yl)phenyl)(6-(((5-(trifluoromethyl)pyridin-2-yl)amino)methyl)-5-azaspiro[2.4]heptan-5-yl)methanone]: the figures for the Kb at human OX1 receptors and at human OX2 receptors were 7.94 nM and 63.1 nM, respectively.

As for `Cc1nc(C(=O)N2CC3(CC3)C[C@H]2CNc2nccc3ccccc23)c(-c2ccccc2)s1` [Compound 2e, (S)-(6-((isoquinolin-1-ylamino)methyl)-5-azaspiro[2.4]heptan-5-yl)(2-methyl-5-phenylthiazol-4-yl)methanone], the Kb at human OX1 receptors and at human OX2 receptors was 2.51 nM in each case.

With `Cc1nc(C(=O)N2CC3(CC3)C[C@H]2CNc2ccc(Cl)cn2)c(-c2ccccc2)s1` [Compound 2a, (S)-(6-(((5-chloropyridin-2-yl)amino)methyl)-5-azaspiro[2.4]heptan-5-yl)(2-methyl-5-phenylthiazol-4-yl)methanone], the Kb on human OX1 receptors is 5.01 nM; on human OX2 receptors it was 79.4 nM.

Turning to `Cc1cc(C(F)(F)F)cc(NC[C@@H]2CC3(CC3)CN2C(=O)c2nc(C)sc2-c2ccccc2)n1` [Compound 2k, (S)-(6-(((6-methyl-4-(trifluoromethyl)pyridin-2-yl)amino)methyl)-5-azaspiro[2.4]heptan-5-yl)(2-methyl-5-phenylthiazol-4-yl)methanone], the Kb on human OX1 receptors is 15.8 nM; at human OX2 receptors, 2.51 nM.

For the compound `Cc1ccc(-c2ccc(C#N)cc2)c(C(=O)N2CC3(CC3)C[C@H]2CNc2ccc(C(F)(F)F)cn2)n1` [Compound E8, (S)-4-(6-methyl-2-(6-(((5-(trifluoromethyl)pyridin-2-yl)amino)methyl)-5-azaspiro[2.4]heptane-5-carbonyl)pyridin-3-yl)benzonitrile], the Kb on human OX1 receptors was 20 nM; at human OX2 receptors it was 31.6 nM.

As to `O=C(c1cc(Cl)ccc1-c1ncccn1)N1CC2(CC2)C[C@H]1CNc1cc(C(F)(F)F)c(Cl)cn1` [Compound 1t, (S)-(5-chloro-2-(pyrimidin-2-yl)phenyl)(6-(((5-chloro-4-(trifluoromethyl)pyridin-2-yl)amino)methyl)-5-azaspiro[2.4]heptan-5-yl)methanone], the Kb was 7.94 nM at human OX1 receptors and 20 nM on human OX2 receptors.

For `Cc1ccc(OCc2ccc(F)cc2)c(C(=O)N2CC3(CC3)C[C@H]2CNc2ccc(C(F)(F)F)cn2)n1` [Compound 3m, (S)-(3((4-fluorobenzyl)oxy)-6-methylpyridin-2-yl)(6-(((5-(trifluoromethyl)pyridin-2-yl)amino)methyl)-5-azaspiro[2.4]heptan-5-yl)methanone], the values for the Kb at human OX1 receptors and at human OX2 receptors were 39.8 nM and 15.8 nM, respectively.

`O=C(c1cc(Cl)ccc1-c1ncccn1)N1CC2(CC2)C[C@H]1CNc1nccc(C(F)(F)F)n1` [Compound 1q]: the Kb was 39.8 nM at human OX1 receptors and 6.31 nM at human OX2 receptors.

On to `Cc1ccc(-c2ncccn2)c(C(=O)N2CC3(CC3)C[C@H]2CNc2ccc(C(F)(F)F)cn2)n1` [Compound 3a, (S)-(6-methyl-3-(pyrimidin-2-yl)pyridin-2-yl)(6-(((5-(trifluoromethyl)pyridin-2-yl)amino)methyl)-5-azaspiro[2.4]heptan-5-yl)methanone], for which the Kb on human OX1 receptors is 3.98 nM; on human OX2 receptors it was 31.6 nM.

Broadly, the Kb is the equilibrium dissociation constant of an antagonist, usually derived from a functional assay.
